Reference: US9376376B2, “Substitute diphenylamine compounds use thereof as antitumor agents” (SINOCHEM CORPORATION, priority 2012, dated 2016)

How the values were obtained:
Format in all cases: cell-based, human
leukemia HL-60 cells [1] = assay: In vitro cell inhibition assay (MTT method), HL-60; details: 48 h
Protocol: (§1) The human cancer cell lines used for this assay were lung cancer A549 and leukemia HL-60.
(§2) The A549 or HL-60 cells were picked up from cell incubator, after washed for twice using PBS, cells were digested by 0.25% trypsin, and then add medium to terminate the digestion. After cells were collected using centrifuge and re-suspended, count cells under inverted microscope and add medium to make a density was 5×10^4 cells/mL. After 100 μL aliquots were added to each well of 96-well microtiter plates, cells were cultured in 5% incubator for overnight at 37° C., then the different concentration compounds were added to each well. After incubation for 48 h, MTT solution was added to each well and plates were then incubated for 4 h. The MTT tetrazolium was reduced to formazan by living cells. Then the formazan crystals were dissolved though adding DMSO to each well. The absorbance was read at 570 nm with a microplate reader.

lung cancer A549 cell = assay: In vitro cell inhibition assay (MTT method), A549; details: 48 h incubation
Protocol: as §1, §2

leukemia HL-60 cells [2] = assay: In vitro cell inhibition assay, CCK-8 method, HL-60; details: HL-60 cells, CCK-8 method
Protocol: After the cell culture flasks gently shaking, culture fluid was discarded in clean bench. […] Cells were collected and transferred to centrifuge tube. For the non-adherent cells HL-60, CCRF-CEM and MOLT-4, cell flasks were picked up from incubator and then transferred to the centrifuge tubes directly. After cells were collected using centrifuge at 1000 rpm/min for 5 min, the fluid was discarded. Then cells were washed for one time by PBS, discard fluid. Then add some medium, count cells under inverted microscope using blood cell counting plate, according the counting number to making the density of adherent cell was 1×10^5 cells/mL, the non-adherent cell was 2×10^5 cells/mL (the volumes of HL-60, CCRF-CEM, MOLT-4 are smaller than non-adherent cells, these cells added to each well was much more higher). Add 50 μL aliquots to each well of 96-well plates (the density of adherent cells was 5000 cells/well, non-adherent cells was 10000 cells/well). Blank control, Negative control, blank control with compounds and positive control wells were grouped, and three replicate wells were used for each data point in the experiments. Then the cells were cultured in 5% incubator for overnight at 37° C., Then the different concentration compounds were added to each well. After incubation for 48 h, according to the manufacturer's instructions, CCK-8 reagent (10 μl) was added and incubation was continued for a further 2-4 h. The absorbance (A) of each well was read at 450 nm using a plate reader.

Compound	Proliferation inhibitory effect of the compounds on HL-60 cells (% of Control) (leukemia HL-60 cells [1]; concentration 0.01 μM)	Proliferation inhibitory effect of the compounds on HL-60 cells (% of Control) (leukemia HL-60 cells [1]; concentration 0.1 μM)	Proliferation inhibitory effect of the compounds on HL-60 cells (% of Control) (leukemia HL-60 cells [1]; concentration 1 μM)	Proliferation inhibitory effect of the compounds on HL-60 cells (% of Control) (leukemia HL-60 cells [1]; concentration 10 μM)	Proliferation inhibitory effect of the compounds on HL-60 cells (% of Control) (leukemia HL-60 cells [1]; concentration 100 μM)	Proliferation inhibitory effect of the compounds on A549 cell (% of Control) (lung cancer A549 cell; 0.01 μM)	Proliferation inhibitory effect of the compounds on A549 cell (% of Control) (lung cancer A549 cell; 0.1 μM)	Proliferation inhibitory effect of the compounds on A549 cell (% of Control) (lung cancer A549 cell; 1 μM)	Proliferation inhibitory effect of the compounds on A549 cell (% of Control) (lung cancer A549 cell; 10 μM)	Proliferation inhibitory effect of the compounds on A549 cell (% of Control) (lung cancer A549 cell; 100 μM)	Proliferation inhibitory effect of the compounds on HL-60 cells (% of Control) (leukemia HL-60 cells [2]; concentration 0.01 μM)	Proliferation inhibitory effect of the compounds on HL-60 cells (% of Control) (leukemia HL-60 cells [2]; concentration 0.1 μM)	Proliferation inhibitory effect of the compounds on HL-60 cells (% of Control) (leukemia HL-60 cells [2]; concentration 1 μM)	Proliferation inhibitory effect of the compounds on HL-60 cells (% of Control) (leukemia HL-60 cells [2]; concentration 10 μM)	Proliferation inhibitory effect of the compounds on HL-60 cells (% of Control) (leukemia HL-60 cells [2]; concentration 100 μM)
Cc1c(Cl)c([N+](=O)[O-])cc([N+](=O)[O-])c1Nc1c(F)cc(Cl)cc1F [Compound 22-93]	−3.6 % of Control	−7.1 % of Control	6.8 % of Control	70.4 % of Control	95.4 % of Control	−2.2 % of Control	−1.8 % of Control	−0.2 % of Control	73.7 % of Control	91.4 % of Control	–	–	–	–	–
N#Cc1ccc(Nc2c(Cl)c(Cl)c(C#N)c(Cl)c2C#N)cc1 [Compound 6-23]	2.3 % of Control	10.8 % of Control	23.1 % of Control	93.2 % of Control	90.6 % of Control	−0.8 % of Control	−1.8 % of Control	2.5 % of Control	93.7 % of Control	93.8 % of Control	–	–	–	–	–
N#Cc1c(Cl)c(Cl)c(Nc2ccc(Cl)c(Cl)c2)c(C#N)c1Cl [Compound 6-43]	–	–	–	–	–	–	–	–	–	–	23.65 % of Control	31.60 % of Control	38.45 % of Control	73.80 % of Control	78.53 % of Control
N#Cc1c(Cl)c(Cl)c(Nc2ccccc2)c(C#N)c1Cl [Compound 6-1]	11.5 % of Control	10.4 % of Control	18.8 % of Control	63.9 % of Control	61.9 % of Control	13.1 % of Control	12.1 % of Control	16.9 % of Control	20.4 % of Control	19.8 % of Control	–	–	–	–	–
N#Cc1c(Cl)c(Cl)c(Nc2c(Cl)cc([N+](=O)[O-])cc2Br)c(C#N)c1Cl [Compound 6-113]	−3.8 % of Control	8.8 % of Control	9.3 % of Control	85.4 % of Control	93.1 % of Control	9.2 % of Control	2.9 % of Control	2.6 % of Control	75.6 % of Control	93.7 % of Control	–	–	–	–	–
